“Also recorded” adds a separate entry of the source.
Assays:
SW480 cells = assay: Cytotoxicity assay (cell survival rate, MTT); type: cell-based; details: substrate alone, 2DG for 72 hours
Method: (§1) HepG2 cells, SKOV3 cells, HCT116 cells and CaCo2 cells were cultured in DMEM medium, SW480 cells in 1640 medium, and HT29 cells in McCoy’s 5A medium. […] In cytotoxicity assays, cells were seeded at 1 × 10^5 cells/well in 96 well plates with full medium. In GSH assay and Western blot analysis, cells were seeded at 3× 10^6 cells/well in 6 well plates. The AKR1Bs substrates’ cytotoxicity was assessed by cell survival rate using MTT assay. After the cells were treated with the substrates for the length of time indicated, MTT was added to a final concentration of 0.5 mg/ml in each well of a 96-well plate, and the plates were incubated at 37° C. for 4 hour. Then DMSO was added to dissolve the formazan product, the amount of which is proportional to the number of live cells. The absorbance of dissolved dye was measured at 540 nm using an automatic microplate reader.

HT29 cells = assay: Cytotoxicity assay (cell survival rate, MTT); type: cell-based; details: substrate alone, 2DG for 72 hours
Method: as §1

AKR1B1 [1] = molecular target: T1, AKR1B1 (Homo sapiens, UniProt P15121); assay: Enzyme activity assay (NADPH oxidation), purified AKR1B1; type: biochemical; details: 20 mM substrate, pH 6.2, 30° C.
Method: (§2) Assay of AKR1B1 and AKR1B10 enzymes activities were conducted in 1 ml of the reaction mixture containing 135 mM sodium phosphate buffer (pH 6.2 for AKR1B1 or pH 7.0 for AKR1B10), 0.2 mM NADPH, 0.3 M ammonium sulfate, 2 µg purified protein and 20 mM of their substrate as indicated. The reaction mix was incubated at 30° C. for 30 minutes (min). Protein-free blank controls were included. The decrease of NADPH was monitored by spectrophotometer at 340 nm. Enzyme activity was calculated as the amount of NADPH oxidized/min/mg of protein (Shen Y et al., Chem Biol Interact. 2011, 191(1-3): 192-198).

AKR1B10 [2] = molecular target: T2, AKR1B10 (Homo sapiens, UniProt O60218); assay: Enzyme activity assay (NADPH oxidation), purified AKR1B10; type: biochemical; details: 20 mM substrate, pH 7.0, 30° C.
T2 sequence (O60218 whole entry): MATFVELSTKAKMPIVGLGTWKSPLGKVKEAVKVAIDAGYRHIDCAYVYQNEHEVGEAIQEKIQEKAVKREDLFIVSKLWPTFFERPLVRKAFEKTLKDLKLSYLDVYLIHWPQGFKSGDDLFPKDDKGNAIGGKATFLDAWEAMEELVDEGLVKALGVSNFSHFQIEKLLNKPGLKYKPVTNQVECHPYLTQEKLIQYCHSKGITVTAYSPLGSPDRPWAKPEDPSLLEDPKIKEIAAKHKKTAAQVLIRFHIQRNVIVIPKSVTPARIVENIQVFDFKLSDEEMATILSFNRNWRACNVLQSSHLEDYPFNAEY
Method: as §2

HCT116 cells [3] = assay: GSH assay of cell lysates; type: cell-based; details: for Restoration of GSH level in 2DG treated cells by AKR1Bs inhibitor: inhibitor (40 µM) 24 h, then 2DG (20 mM) 48 h
Method: (§3) HepG2 cells, SKOV3 cells, HCT116 cells and CaCo2 cells were cultured in DMEM medium, SW480 cells in 1640 medium, and HT29 cells in McCoy’s 5A medium. All cell culture media were supplemented with 10% FBS, 1% PSN, and cells were cultured in a humidified incubator containing 5% CO2 at 37° C. In cytotoxicity assays, cells were seeded at 1 × 10^5 cells/well in 96 well plates with full medium. In GSH assay and Western blot analysis, cells were seeded at 3× 10^6 cells/well in 6 well plates.
(§4) The cells were washed in cold PBS and then scraped into 300 µL of PBS. The cells were disrupted by ultrasonicator on ice followed by centrifuged at 3500 rpm at 4° C. The supernatant was transferred to a fresh tube and used for GSH assay using GSH assay kit. The concentrations of GSH in cell lysates were determined using the standard GSH calibration curve. The GSH detection for each sample was performed at least three times.

HepG2 cells [4] = assay: GSH assay of cell lysates; type: cell-based
Method: as §3, §4

CaCo2 cells [5] = assay: GSH assay of cell lysates; type: cell-based; details: for Restoration of GSH level in 2DG treated cells by AKR1Bs inhibitor: inhibitor (40 µM) 24 h, then 2DG (20 mM) 48 h
Method: as §3, §4

SKOV3 cells [6] = assay: GSH assay of cell lysates; type: cell-based
Method: as §3, §4

glycolysis = details: background statement; cited from earlier work
AKR1B10 [7] = molecular target: T2, AKR1B10; details: ND = no detectable activity or less than 32 nmol/min/mg; cited from earlier work
AKR1B1 [8] = molecular target: T1, AKR1B1; details: ND = no detectable activity or less than 32 nmol/min/mg; cited from earlier work
HCT116 cells [9] = assay: Cytotoxicity assay (cell survival rate, MTT); type: cell-based; details: for Protection against 2DG toxicity by AKR1Bs inhibitor (survival rate): inhibitor 24 h, then 2DG (20 mM) for additional 48 h
Method: as §3
(§5) The AKR1Bs substrates’ cytotoxicity was assessed by cell survival rate using MTT assay. After the cells were treated with the substrates for the length of time indicated, MTT was added to a final concentration of 0.5 mg/ml in each well of a 96-well plate, and the plates were incubated at 37° C. for 4 hour. Then DMSO was added to dissolve the formazan product, the amount of which is proportional to the number of live cells. The absorbance of dissolved dye was measured at 540 nm using an automatic microplate reader.

HepG2 cells [10] = assay: Cytotoxicity assay (cell survival rate, MTT); type: cell-based; details: for Protection against 2DG toxicity by AKR1Bs inhibitor (survival rate): inhibitor 24 h, then 2DG (20 mM) for additional 48 h
Method: as §3, §5

CaCo2 cells [11] = assay: Cytotoxicity assay (cell survival rate, MTT); type: cell-based; details: for Protection against 2DG toxicity by AKR1Bs inhibitor (survival rate): inhibitor 24 h, then 2DG (20 mM) for additional 48 h
Method: as §3, §5

SKOV3 cells [12] = assay: Cytotoxicity assay (cell survival rate, MTT); type: cell-based; details: for Protection against 2DG toxicity by AKR1Bs inhibitor (survival rate): inhibitor 24 h, then 2DG (20 mM) for additional 48 h
Method: as §3, §5

[13] = substrate alone, 2DG for 72 hours
[14] = inhibitor (40 µM) 24 h, then 2DG (20 mM) 48 h

## O=CC[C@@H](O)[C@H](O)[C@H](O)CO [2DG, 2-deoxyglucose]
SW480 cells
  Cytotoxicity of AKR1Bs substrate (cell survival rate): more resistant
HT29 cells
  Cytotoxicity of AKR1Bs substrate (cell survival rate): more resistant
AKR1B1 [1]
  Efficiency as substrate of AKR1B1 (rate of NADPH depletion): then 2DG
AKR1B1 [1]; listed as 2 DG
  Efficiency as substrate of AKR1B1 (rate of NADPH depletion): worst substrate among the three
AKR1B10 [2]
  Efficiency as substrate of AKR1B10 (rate of NADPH depletion): then 2DG
AKR1B10 [2]; listed as 2 DG
  Efficiency as substrate of AKR1B10 (rate of NADPH depletion): worst substrate among the three
HCT116 cells [3]; 2DG (20 mM) 48 h
  GSH level in the presence of 2DG: decreased significantly
HepG2 cells [4]; 2DG (20 mM) 48 h
  GSH level in the presence of 2DG: decreased significantly
CaCo2 cells [5]; 2DG (20 mM) 48 h
  GSH level in the presence of 2DG: decreased significantly
SKOV3 cells [6]; 2DG (20 mM) 48 h
  GSH level in the presence of 2DG: decreased significantly
glycolysis
  Inhibition of glycolysis: 15-40%
AKR1B10 [7]
  AKR1B10 activity, amount of NADPH (nmol) oxidized per min per mg of protein: 87 nmol/min/mg
AKR1B1 [8]
  AKR1B1 activity, amount of NADPH (nmol) oxidized per min per mg of protein: 149 nmol/min/mg
HCT116 cells [9]; [13]
  Cytotoxicity of AKR1Bs substrate (cell survival rate): more sensitive to 2DG than HepG2 and SKOV3
HepG2 cells [10]; [13]
  Cytotoxicity of AKR1Bs substrate (cell survival rate): more sensitive; also recorded: not as efficient as glyceraldehyde and diacetyl
CaCo2 cells [11]; [13]
  Cytotoxicity of AKR1Bs substrate (cell survival rate): more sensitive to 2DG than HepG2 and SKOV3
SKOV3 cells [12]; [13]
  Cytotoxicity of AKR1Bs substrate (cell survival rate): more sensitive; also recorded: not as efficient as glyceraldehyde and diacetyl

## O=C[C@H](F)[C@@H](O)[C@H](O)[C@H](O)CO [2FDG, 2-fluorodeoxy-D-glucose]
glycolysis
  Potency as glycolysis inhibitor relative to 2DG: more potent glycolysis inhibitor than 2DG

## NC(=O)[C@@H]1C[C@]2(NC(=O)NC2=O)c2cc(F)ccc2O1 [Fidarestat]
HCT116 cells [3]
  Restoration of GSH level in 2DG treated cells by AKR1Bs inhibitor: able to increase
CaCo2 cells [5]
  Restoration of GSH level in 2DG treated cells by AKR1Bs inhibitor: able to increase
HCT116 cells [9]
  Protection against 2DG toxicity by AKR1Bs inhibitor (survival rate): protected
HepG2 cells [10]
  Protection against 2DG toxicity by AKR1Bs inhibitor (survival rate): less effective in protecting
CaCo2 cells [11]
  Protection against 2DG toxicity by AKR1Bs inhibitor (survival rate): protected
SKOV3 cells [12]
  Protection against 2DG toxicity by AKR1Bs inhibitor (survival rate): less effective in protecting

## COc1ccc2c(C(=S)N(C)CC(=O)O)cccc2c1C(F)(F)F [Tolrestat]
HCT116 cells [3]
  Restoration of GSH level in 2DG treated cells by AKR1Bs inhibitor: significantly restored
HepG2 cells [4]; [14]
  Restoration of GSH level in 2DG treated cells by AKR1Bs inhibitor: significantly restored
CaCo2 cells [5]
  Restoration of GSH level in 2DG treated cells by AKR1Bs inhibitor: significantly restored
SKOV3 cells [6]; [14]
  Restoration of GSH level in 2DG treated cells by AKR1Bs inhibitor: significantly restored
HCT116 cells [9]
  Protection against 2DG toxicity by AKR1Bs inhibitor (survival rate): dose-dependently protected
HepG2 cells [10]
  Protection against 2DG toxicity by AKR1Bs inhibitor (survival rate): dose-dependently protected
CaCo2 cells [11]
  Protection against 2DG toxicity by AKR1Bs inhibitor (survival rate): dose-dependently protected
SKOV3 cells [12]
  Protection against 2DG toxicity by AKR1Bs inhibitor (survival rate): dose-dependently protected

— US20230190774A1, “METHOD OF USING SUBSTRATES OF AKR1Bl/AKR1B10 AS ANTI-CANCER DRUGS” (Beijing Normal University Hong Kong Baptist University …, priority 2015, published 2023)
